Test results from PubChem BioAssay (NCI).
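Cultured in 96-well plates, cells were exposed to test compound for 48 hours across five concentrations. GI50 is the concentration that inhibits growth by half. TGI: concentration producing complete growth inhibition.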

Key:
Test in all cases: NCI anticancer screen, dose series, 48 h
HOP-62 NSCLC = test system: HOP-62 NSCLC
HS 578T breast = test system: HS 578T breast
MCF7 breast = test system: MCF7 breast
MDA-MB-435 = test system: MDA-MB-435
NCI-H226 lung = test system: NCI-H226 lung
NCI-H23 lung = test system: NCI-H23 lung
OVCAR-3 ovarian = test system: OVCAR-3 ovarian
SF-268 CNS = test system: SF-268 CNS
SF-295 CNS = test system: SF-295 CNS
UO-31 renal = test system: UO-31 renal
CCRF-CEM leukemia = test system: CCRF-CEM leukemia
SF-539 CNS = test system: SF-539 CNS

SMILES | TGI (HOP-62 NSCLC) [µM] | TGI (HS 578T breast) [µM] | TGI (MCF7 breast) [µM] | TGI (MDA-MB-435) [µM] | TGI (NCI-H226 lung) [µM] | TGI (NCI-H23 lung) [µM] | TGI (OVCAR-3 ovarian) [µM] | TGI (SF-268 CNS) [µM] | TGI (SF-295 CNS) [µM] | TGI (UO-31 renal) [µM] | TGI (CCRF-CEM leukemia) [µM] | TGI (SF-539 CNS) [µM] | GI50 (CCRF-CEM leukemia) [µM] | GI50 (HOP-62 NSCLC) [µM] | GI50 (HS 578T breast) [µM] | GI50 (MDA-MB-435) [µM] | GI50 (NCI-H23 lung) [µM] | GI50 (SF-295 CNS) [µM] | GI50 (SF-539 CNS) [µM] | GI50 (UO-31 renal) [µM]
Cc1nc(Nc2ccc(F)cc2)c2sc(=S)n(-c3ccc(F)cc3)c2n1 | 24.1 | 37.7 | 18.7 | 22.7 | 33.5 | 16.9 | 30.9 | 23 | 27.3 | 30.1 |  |  |  |  |  |  |  |  |  | 
Nc1ccc(C2NC(=O)Cc3c2ccc2ccccc32)cc1 (stereo unspecified) | > 100 | > 100 | > 100 | > 100 | > 100 | > 100 | > 100 | > 100 | > 100 | > 100 | > 100 | > 100 |  |  |  |  |  |  |  | 
CCCCNc1c(CN)cnc2cc(Cl)ccc12 | 35.4 | 37.2 | 27.6 | 35 | 32.6 | 39.2 | 32.3 | 57.6 | 29.8 |  | 18.7 |  |  |  |  |  |  |  |  | 
Nc1ccc2nc3ccc(N)cc3[n+](-c3ccccc3)c2c1 | > 100 | > 100 | > 100 | > 100 |  | > 100 | > 100 | > 100 | > 100 | > 100 | > 100 | > 100 |  |  |  |  |  |  |  | 
O=C(O)CSCC(=O)O | > 100 | > 100 |  | > 100 | > 100 | > 100 | > 100 | > 100 | > 100 | > 100 | > 100 |  |  |  |  |  |  |  |  | 
c1ccc(C(c2ccccc2)[P+](c2ccccc2)(c2ccccc2)c2ccccc2)cc1 | 6.63 |  | 11.9 |  | 6.03 | 5.05 | 3 | 15.3 | 7.27 | 7.95 | 14.6 | 6.31 |  |  |  |  |  |  |  | 
CC(=O)Oc1ccc2c(C)cc(=O)oc2c1 | > 100 | > 100 | > 100 | > 100 | > 100 | > 100 | > 100 | > 100 | > 100 | > 100 | > 100 | > 100 |  |  |  |  |  |  |  | 
Cc1ccc2cc3c(ccc4ccccc43)c3c2c1CC3 | > 100 | > 100 | > 18.3 | > 100 | > 100 | > 100 | > 100 | > 100 | > 100 | > 100 | > 100 | > 100 |  |  |  |  |  |  |  | 
COc1ccc2oc(=O)cc(C)c2c1 | > 100 | > 100 | > 100 | > 100 | > 100 | > 100 | > 100 | > 100 | > 100 | > 100 | > 100 | > 100 |  |  |  |  |  |  |  | 
CS/C(=N\C(=S)Nc1ccccc1)Nc1ccccc1 | > 100 |  |  |  | 70.5 | > 100 | 48 | > 100 | 97 | 43.1 |  |  |  |  |  |  |  |  |  | 
N=C(N)C(N=Nc1ccccc1)C(N)=O (stereo unspecified) | > 100 | > 100 | > 100 | > 100 | > 100 | > 100 | > 100 | > 100 | > 100 | > 100 |  |  |  |  |  |  |  |  |  | 
FC(F)(F)C(C1=NC(C(F)(F)F)(C(F)(F)F)N=C(N2CCOCC2)O1)C(F)(F)F |  | > 100 |  | 59.3 |  |  | > 100 | > 100 | 44.6 | > 100 | 25.3 | 97.3 |  |  |  |  |  |  |  | 
COc1ccc(C2C(=O)C(Cl)N2Nc2nc(C)cc(=O)[nH]2)cc1OC (stereo unspecified) | > 100 |  |  |  |  | > 100 | 84.8 | > 100 |  | > 100 | 55.1 | 85.5 |  |  |  |  |  |  |  | 
C=CC(=O)N1CCN(c2nc(OC[C@@H]3CCCN3C)nc3c2CCN(c2cccc4cccc(C)c24)C3)C[C@@H]1CC#N | 1.64 | 4.53 |  | 3.19 |  | 1.5 |  |  | 2.9 | 2.54 | 2.78 | 3.04 | 0.475 | < 0.01 | 1.71 | 1.7 | < 0.01 | 1.53 | 1.63 | 1.28
NC(=O)NO | 2220 | > 1220 | > 2460 | > 2500 | 2120 | 2050 | 2500 | 2340 | 1950 | 1870 | 1060 | 1440 |  |  |  |  |  |  |  | 
COc1ccccc1N1C(Cl)C(=O)C1c1c[nH]c2ccccc12 (stereo unspecified) | > 100 |  |  |  |  | > 100 | > 100 | > 100 | > 100 | > 100 | > 100 | > 100 |  |  |  |  |  |  |  | 
O=C(O)C(O)Cc1ccccn1 (stereo unspecified) | > 100 | > 100 | > 100 | > 100 | > 100 | > 100 | > 100 | > 100 | > 100 | > 100 | > 100 |  |  |  |  |  |  |  |  | 
CN(C)CCCNc1ncnc2nc[nH]c12 | > 100 | > 100 | > 100 | > 100 | > 100 | > 100 | > 100 | > 100 | > 100 | > 100 | > 100 |  |  |  |  |  |  |  |  | 
COc1cccc(Nc2nc(-c3cccs3)nc3ccc(Br)cc23)c1 | 57.9 | > 100 | 63.8 | > 100 | > 100 | > 100 | > 100 | > 100 | > 100 | > 100 | > 100 | > 100 |  |  |  |  |  |  |  | 
